Reference: US9867814B2, “Use of non-peptidic NK1 receptor antagonists for the production of apoptosis in tumour cells” (NK-1 IP LIMITED, priority 2004, dated 2018)

Key:
Assay type in all cases: cell-based, human
CA-46 = assay: MTS cell proliferation assay, Burkitt's lymphoma line CA-46; details: CA-46 cells
Description: Cellular lines related with Burkitt's human lymphoma The cellular line of Burkitt's human lymphoma was used with CA-46 (DSMZ).
This cellular line was maintained in a culture of RPMI 1640 supplemented with 10% fetal bovine serum according to the established cellular culture conditions of the ATCC.
The cellular lines were cultivated in flasks of 75 ml (Falcon, Germany). Half was renewed every two days and the cells were treated with Trypsin (0.05% and 0.02% EDTA […]) every six days. The cells were incubated at 37 C in a humidification of (95% air/5% CO2). […]
(§1) The cell proliferation was evaluated using the MTS method [3-(4,5-dimethylthiazol-2-il)-5-(3-carboxymethoxyphenyl) 2-(4-sulfophenyl)-2H-tetrazolium], following the instructions of use by the manufacturer (CellTiter 96 Aqueous One Solution Cell Proliferation Assay, Promega, USA).
The cells were quantified and cultured in plates of 96 wells each. […]
In T0, 20 μL of MTS was immediately added to the wells and they were read 90 minutes later. […]
To study the proliferation of the cells 20 µl of reactive MTS was added to each well (T1, T2) 90 min before reading the samples with the plate reader (TECAN Spectra Classic) at 492 nm. The quantity of reactive MTS was measured by optical density, being directly proportional in number of live cells. […]

A-204 = assay: MTS cell proliferation assay, rhabdomyosarcoma line A-204; details: A-204 cells
Description: Cellular Lines Related to Human Rhabdomyosarcoma A-204 (DSMZ) were Used.
This cellular line was maintained in a culture of Mc-Co-supplemented with 10% fetal bovine serum according to the established cellular culture conditions of the ATCC.
(§2) The cellular line was cultivated in flasks of 75 ml (Falcon, Germany). Half were renewed every two days and the cells were treated with Trypsin (0.05% and 0.02% EDTA without Ca2+ and Mg2+) every six days. The cells were incubated at a temperature of 37 C in a humidification of (95% air/5% CO2). […]
The cell proliferation was evaluated using the MTS method [3-(4,5-dimethylthiazol-2il)-5-(3-carboxymethoxyphenyl) 2-(4-sulfophenyl)-2H-tetrazolium], following the instructions of use by the manufacturer (CellTiter 96 Aqueous One Solution Cell Proliferation Assay, Promega, USA).
(§3) During the experiment, the cultivated cells were broken apart every 4-5 days by way of trypsinization and to test the cell viability the blue trypan method was used. The cells were quantified and cultured in plates of 96 wells each. […]
In T0, 20 μl of MTS was immediately added to the wells and were read 90 minutes later. […]
To study the proliferation of the cells 20 μl of MTS reactor was added to each well (T1, T2) 90 min., before reading the samples with the plate reader (TECAN Spectra Classic) at 492 nm. […]

COLO-677 = assay: MTS cell proliferation assay, small cell lung cancer line COLO-677; details: COLO-677 cells
Description: Cellular lines related with small cell lung cancer COLO-677 (DSMZ) was used. This cellular line was maintained in a culture of RPMI 1640 supplemented with 10% fetal bovine serum according to the established cellular culture conditions of the ATCC.
as §2, §1, §3
In T0, 20 μl of MTS was immediately added to the wells and they were read 90 minutes later. […]
To study the proliferation of the cells 20 μL of MTS reactor was added to each well (T1, T2) 90 min., before reading the samples with the plate reader (TECAN Spectra Classic) at 492 nm. […]

For `FC(F)(F)c1cc(CO[C@H]2CCCN[C@H]2c2ccccc2)cc(C(F)(F)F)c1` [L-733,060, (2S,3S) 3-([3,5-Bis(trifluoromethyl)phenyl]metoxi)-2-phenylpiperidine], the cellular growth (CA-46; at the highest concentrations (2.5 μM to 25 μM tested), 35 hrs. and 72 hrs. incubation) was “inhibition in cellular growth was produced”, the apoptosis (CA-46; at the maximum dose (2.5 μM to 25 μM tested)) was “apoptosis” and the cellular growth (A-204; at the highest concentrations (2.5 μM to 20 μM tested), 36 hrs. and 72 hrs. incubation) was “Cellular growth is inhibited”. For the same molecule, the apoptosis (A-204; at the maximum dose (2.5 μM to 20 μM tested)) was “apoptosis”, the cellular growth (COLO-677; at the highest concentrations (5 μM to 20 μM tested), 40 hrs. and 96 hrs. incubation) was “Cellular growth is inhibited” and the apoptosis (COLO-677; at the maximum dose (5 μM to 20 μM tested)) was “apoptosis”.
